Biological target: Tyrosine-protein kinase HCK (Homo sapiens) (UniProt P08631)
Test: HCK kinase inhibition, dose response, biochemical, Z'-LYTE, FRET readout, direct format (AID 1671291)
Settings: Z'-LYTE FRET peptide phosphorylation, recombinant HCK

Tyrosine-protein kinase HCK (Homo sapiens), sequence (P08631 whole entry, looked up): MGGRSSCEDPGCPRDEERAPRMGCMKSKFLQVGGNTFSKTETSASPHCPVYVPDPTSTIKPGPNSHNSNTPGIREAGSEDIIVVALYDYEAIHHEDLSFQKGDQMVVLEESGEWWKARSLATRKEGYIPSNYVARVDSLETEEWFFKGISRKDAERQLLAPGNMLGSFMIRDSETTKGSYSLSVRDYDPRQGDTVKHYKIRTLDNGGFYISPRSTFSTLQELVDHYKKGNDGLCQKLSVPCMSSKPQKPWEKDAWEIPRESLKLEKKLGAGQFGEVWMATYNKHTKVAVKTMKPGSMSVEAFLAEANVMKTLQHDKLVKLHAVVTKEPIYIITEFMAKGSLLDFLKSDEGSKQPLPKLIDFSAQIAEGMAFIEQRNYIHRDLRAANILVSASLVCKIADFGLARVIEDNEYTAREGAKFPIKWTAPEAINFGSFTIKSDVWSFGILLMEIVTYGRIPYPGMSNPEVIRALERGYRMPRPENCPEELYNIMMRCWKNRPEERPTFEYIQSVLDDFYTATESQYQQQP

**Q.** With `COc1cc2ncnc(Nc3cccc(Cl)c3)c2cc1OC` as the compound, how does the IC50 read?
**A.** 943 nM
